According to ChEMBL document CHEMBL1697781, “Assessment of the health effects of chemicals in humans: II. Construction of an adverse effects database for QSAR modeling” (Curr Drug Discov Technol, 2004):

Legend:
Details in all cases: human; call rule not given here
[1] = test system: Hepatotoxicity; experiment: FDA HLAED, serum glutamic pyruvic transaminase (SGPT) increase
[2] = test system: Hepatotoxicity; experiment: FDA HLAED, gamma-glutamyl transferase (GGT) increase
[3] = test system: Hepatotoxicity; experiment: FDA HLAED, serum glutamic oxaloacetic transaminase (SGOT) increase
[4] = test system: Hepatotoxicity; experiment: FDA HLAED, liver enzyme composite activity
[5] = test system: Hepatotoxicity; experiment: FDA HLAED, alkaline phosphatase increase
[6] = test system: Hepatotoxicity; experiment: FDA HLAED, lactate dehydrogenase (LDH) increase
For GGT Increase - Index Value in this document: reference of the scale not given here.
For LDH Increase - Index Value in this document: reference of the scale not given here.

Row | SMILES | SGPT Increase - Activity Score [1] | SGPT Increase - Index Value [1] | SGPT Increase - Number of Reports [1] | GGT Increase - Activity Score [2] | GGT Increase - Index Value [2] | GGT Increase - Number of Reports [2] | SGOT Increase - Activity Score [3] | SGOT Increase - Index Value [3] | SGOT Increase - Number of Reports [3] | Alkaline Phosphatase Increase - Activity Score [5] | Alkaline Phosphatase Increase - Index Value [5] | Alkaline Phosphatase Increase - Number of Reports [5] | LDH Increase - Activity Score [6] | LDH Increase - Index Value [6] | LDH Increase - Number of Reports [6] | Composite Activity - Active [4] | Composite Activity - Marginal [4] | Composite Activity - Score [4] | further results
1 | CC(C)c1c(C(=O)Nc2ccccc2)c(-c2ccccc2)c(-c2ccc(F)cc2)n1CC[C@@H](O)C[C@@H](O)CC(=O)O [ATORVASTATIN] | Active | 7.3 | >= 4 | Active | 6.2 | >= 4 | Active | 6.5 | >= 4 | Inactive | 1.7 | >= 4 | Inactive | 2.5 | >= 4 | – | – | – | Composite Activity - Active ([4]; Liver): 3; Composite Activity - Marginal ([4]; Liver): 0; Composite Activity - Score ([4]; Liver): Active
2 | O=C1C(O)=C([C@H]2CC[C@H](c3ccc(Cl)cc3)CC2)C(=O)c2ccccc21 [ATOVAQUONE] | Inactive | 18.2 | < 4 | Inactive | 0 | < 4 | Inactive | 18.2 | < 4 | Inactive | 0 | < 4 | Inactive | 9.1 | < 4 | 0 | 0 | Inactive | –
3 | O=C(O)CCCCCCCC(=O)O [AZELAIC ACID] | Inactive | 0 | < 4 | Inactive | 0 | < 4 | Inactive | 0 | < 4 | Inactive | 0 | < 4 | Inactive | 0 | < 4 | 0 | 0 | Inactive | –
4 | CN1CCCC(n2nc(Cc3ccc(Cl)cc3)c3ccccc3c2=O)CC1 (stereo unspecified) [AZELASTINE] | Inactive | 0 | < 4 | Inactive | 0 | < 4 | Inactive | 0 | < 4 | Inactive | 0 | < 4 | Inactive | 0 | < 4 | 0 | 0 | Inactive | –
5 | CC[C@H]1OC(=O)[C@H](C)[C@@H](O[C@H]2C[C@@](C)(OC)[C@@H](O)[C@H](C)O2)[C@H](C)[C@@H](O[C@@H]2O[C@H](C)C[C@H](N(C)C)[C@H]2O)[C@](C)(O)C[C@@H](C)CN(C)[C@H](C)[C@@H](O)[C@]1(C)O [AZITHROMYCIN] | Inactive | 2.3 | >= 4 | Inactive | 1 | >= 4 | Inactive | 2.9 | >= 4 | Inactive | 1 | >= 4 | Inactive | 0.8 | >= 4 | 0 | 0 | Inactive | –
6 | C[C@H]1[C@H](NC(=O)/C(=N\OC(C)(C)C(=O)O)c2csc(N)n2)C(=O)N1S(=O)(=O)O [AZTREONAM] | Marginally Active | 3.8 | >= 4 | Inactive | 0.6 | < 4 | Marginally Active | 3.2 | >= 4 | Active | 6.9 | >= 4 | Inactive | 0.6 | < 4 | 1 | 2 | Inactive | –
7 | CCOC(=O)OC(C)OC(=O)[C@@H]1N2C(=O)[C@@H](NC(=O)[C@H](N)c3ccccc3)[C@H]2SC1(C)C (stereo partly specified) [BACAMPICILLIN] | Inactive | 0 | < 4 | Inactive | 0 | < 4 | Inactive | 0 | < 4 | Inactive | 0 | < 4 | Inactive | 0 | < 4 | 0 | 0 | Inactive | –
8 | C[C@H]1C[C@H]2[C@@H]3CCC4=CC(=O)C=C[C@]4(C)[C@@]3(Cl)[C@@H](O)C[C@]2(C)[C@@]1(O)C(=O)CO [BECLOMETHASONE] | Inactive | 0 | < 4 | Inactive | 0 | < 4 | Inactive | 0 | < 4 | Inactive | 0 | < 4 | Inactive | 0 | < 4 | 0 | 0 | Inactive | –
9 | CCOC(=O)[C@H](CCc1ccccc1)N[C@H]1CCc2ccccc2N(CC(=O)O)C1=O [BENAZEPRIL] | Inactive | 0 | < 4 | Inactive | 0.2 | < 4 | Inactive | 0 | < 4 | Inactive | 0.3 | < 4 | Inactive | 0.2 | < 4 | 0 | 0 | Inactive | –
10 | CC(C)COCC(CN(Cc1ccccc1)c1ccccc1)N1CCCC1 (stereo unspecified) [BEPRIDIL] | Inactive | 0 | < 4 | Inactive | 0 | < 4 | Inactive | 0 | < 4 | Inactive | 0 | < 4 | Inactive | 27.1 | < 4 | 0 | 0 | Inactive | –
11 | CC(C)NCC(O)COc1ccc(CCOCC2CC2)cc1 (stereo unspecified) [BETAXOLOL] | Inactive | 0 | < 4 | Inactive | 0 | < 4 | Inactive | 0 | < 4 | Inactive | 0 | < 4 | Inactive | 0 | < 4 | – | – | – | Composite Activity - Active ([4]; Liver): 0; Composite Activity - Marginal ([4]; Liver): 0; Composite Activity - Score ([4]; Liver): Inactive
12 | CC(O)(CS(=O)(=O)c1ccc(F)cc1)C(=O)Nc1ccc(C#N)c(C(F)(F)F)c1 (stereo unspecified) [BICALUTAMIDE] | Active | 11.9 | >= 4 | Inactive | 1.7 | < 4 | Active | 13.6 | >= 4 | Active | 8.5 | >= 4 | Inactive | 5.1 | < 4 | 3 | 0 | Active | –
